In patent US20260219274A1, “POLYOL SWEETNERS AND CARDIOVASCULAR AND THROMBOTIC EVENT RISK” (THE CLEVELAND CLINIC FOUNDATION, priority 2023, published 2026):

Experiments:
[1] = test system: stable subjects undergoing elective diagnostic cardiac evaluation (Validation / US cohort); set-up: species or system human; conditions: in vivo
Text: Our second clinical study employed an independent non-overlapping Validation Cohort, where we employed quantitative stable isotope dilution liquid chromatography tandem mass spectrometry (LC-MS/MS) to determine xylitol levels in serum samples from 2,149 patients (non-overlapping from GeneBank at the Cleveland Clinic; clinicaltrials.gov identifier: NCT0059020).^35-36
In both, the Discovery and Validation Cohorts, Major Adverse Cardiovascular Events (MACE) were defined as death, nonfatal myocardial infarction, or nonfatal cerebrovascular accident (stroke) during follow-up. Adjudicated long term survival data were collected through medical records review and Social Security Death Index query. Cardiovascular disease (CVD) was indicated as presence of peripheral artery disease or coronary artery disease, indicated as any clinical history of myocardial infarction, coronary revascularization (including percutaneous coronary intervention, coronary artery bypass surgery), or angiographic evidence of significant stenosis (≥50%) in 1 or more major coronary arteries. Estimated glomerular filtration rate (eGFR) in both cohorts was calculated based on the recent Chronic Kidney Disease Epidemiology Collaboration 2021 CKD-EPI Creatinine equation.^37 Platelet-related hematology analyses were performed with an Advia 120 hematology analyzer (Siemens, New York, NY).^38 Use of anti-platelet agents (=1556) was defined as either aspirin or a P2Y12 agent or both. All observational studies in this example are reported in compliance with the STrengthening the Reporting of Observational studies in Epidemiology (STROBE)-Statement.^39 Information on gender of study participants of the Discovery and Validation Cohorts is reported in Table 1-3.
Stable-isotope-dilution LC-MS/MS was developed to specifically quantify xylitol in human and mouse plasma, urine and feces (fecal pellets were dissolved in water and supernatant subjected to LC-MS/MS). Accuracy and precision of the method to quantify xylitol (separated from its structural isomers arabitol and rabitol) were assessed by a standard addition method 4 of pure synthetic standard into three different plasma pools. Accuracy was 2.4-2.8%, and intra- and inter-day coefficients of variation (CVs), were 1.2-8.9% and 10.9-11.5%, respectively. Urine creatinine was similarly analyzed by stable-isotope-dilution LC-MS/MS using D3-creatinine as internal standard as previously described.^47 Erythritol was quantified by stable-isotope-dilution LC-MS/MS as previously described.^19 Details for all assays can be found in the additional methods.
Continuous variables are summarized as median (interquartile range [IQR]), and categorical variables are presented as %. […]

washed human platelets = test: Intracellular calcium measurements in Fura 2-filled washed platelets; format: cell-based; conditions: for thrombin-evoked intracellular Ca2+ release: submaximal (0.02 U) thrombin, pre-incubation with the polyol
Procedure: Measurement of intracellular calcium release in washed platelets was performed as previously described.^41 Further details are provided in supplemental methods.
To isolate washed platelets for intracellular Ca^2+ measurements, PRP was prepared as described above. Next, 100 nM prostaglandin E1 (PGE-1, Catalogue #P5512, Sigma, St. Louis, MO, USA) was added to the PRP and centrifuged at 500×g for 20 min at 22° C. as previously described.^6 After a gentle wash in a modified phosphate buffer saline (NaCl (137 mM), KCl (2.7 mM), Na2HPO4 (12 mM), MgCl2 (1 mM), and glucose (5.5 mM), pH 7.4) with PGE-1 (100 nM), the platelet pellet was spun again at 500×g for 20 min. The platelet pellet was re-suspended in modified Hank's buffered salt solution (HBSS-BSA-glucose; NaCl (0.137 M), KCl (5.4 mM), Na2HPO4 (0.25 mM KH2PO4 (0.44 mM), CaCl2 (1.3 mM), MgSO4 (1.0 mM), NaHCO3 (4.2 mM), glucose (5 mM) and BSA (0.1%)) with 100 nM PGE-1 and incubated with Fura 2-AM ([…]) at 22° C. After 30 min of incubation, an additional centrifugation at 500×g for 30 min was performed to remove excess Fura 2-AM. After resuspension in modified Hank's buffered salt solution the platelet pellet was incubated with xylitol at the indicated concentrations or vehicle for 30 min at 22° C. Intracellular Ca^2+ release was initiated by submaximal concentration of thrombin (0.02 U/mL) and changes in intracellular Ca^2+ monitored via Fura 2-AM fluorescence using 340/380 nm dual-wavelength excitation and an emission of 510 nm.
Washed platelets for intracellular Ca^2+ measurements were prepared by adding 100 nM prostaglandin E1 (PGE-1, Catalogue #P5512, Sigma, St. Louis, MO, USA) to PRP and centrifugation at 500×g, 20 min at 22° C. as previously described^26,51. […] Intra-cellular calcium release was induced by submaximal concentration of thrombin (0.02 U/mL) and changes monitored via Fura 2-AM fluorescence using 340/380 nm dual-wavelength excitation and an emission of 510 nm.

SMILES: OC[C@@H](O)[C@H](O)[C@@H](O)CO [xylitol]
- HR [95% CI] for incident (3 year) MACE [1]: 2.31 [1.52-3.52]
- thrombin-evoked intracellular Ca2+ release (washed human platelets): dose-dependently enhanced

SMILES: OC[C@@H](O)[C@@H](O)CO [erythritol]
- HR [95% CI] incident event risk [1]: 2.64 [1.79-3.90]
- HR with 95% CI [1]: 1.21 (1.12-1.31)
- adjusted HR [95% CI] incident MACE [1]: 1.80 [1.18-2.77]
- thrombin-evoked intracellular Ca2+ release (washed human platelets): enhanced
- erythritol concentration eliciting significant increase in stimulus-dependent (thrombin) intracellular calcium (washed human platelets; threshold, FIG. 17): 45 µM
